Activity calls are given as the source filed them. No cut-off for these calls is given here.

The values that follow come from ChEMBL document CHEMBL2424568, “Phenylpyrazolo[1,5-a]quinazolin-5(4H)-one: a suitable scaffold for the development of noncamptothecin topoisomerase I (Top1) inhibitors” (J Med Chem, 2013).

Experiment [1] deals with T1, DNA topoisomerase 1 (Homo sapiens) (UniProt P11387).
T1 sequence (whole entry): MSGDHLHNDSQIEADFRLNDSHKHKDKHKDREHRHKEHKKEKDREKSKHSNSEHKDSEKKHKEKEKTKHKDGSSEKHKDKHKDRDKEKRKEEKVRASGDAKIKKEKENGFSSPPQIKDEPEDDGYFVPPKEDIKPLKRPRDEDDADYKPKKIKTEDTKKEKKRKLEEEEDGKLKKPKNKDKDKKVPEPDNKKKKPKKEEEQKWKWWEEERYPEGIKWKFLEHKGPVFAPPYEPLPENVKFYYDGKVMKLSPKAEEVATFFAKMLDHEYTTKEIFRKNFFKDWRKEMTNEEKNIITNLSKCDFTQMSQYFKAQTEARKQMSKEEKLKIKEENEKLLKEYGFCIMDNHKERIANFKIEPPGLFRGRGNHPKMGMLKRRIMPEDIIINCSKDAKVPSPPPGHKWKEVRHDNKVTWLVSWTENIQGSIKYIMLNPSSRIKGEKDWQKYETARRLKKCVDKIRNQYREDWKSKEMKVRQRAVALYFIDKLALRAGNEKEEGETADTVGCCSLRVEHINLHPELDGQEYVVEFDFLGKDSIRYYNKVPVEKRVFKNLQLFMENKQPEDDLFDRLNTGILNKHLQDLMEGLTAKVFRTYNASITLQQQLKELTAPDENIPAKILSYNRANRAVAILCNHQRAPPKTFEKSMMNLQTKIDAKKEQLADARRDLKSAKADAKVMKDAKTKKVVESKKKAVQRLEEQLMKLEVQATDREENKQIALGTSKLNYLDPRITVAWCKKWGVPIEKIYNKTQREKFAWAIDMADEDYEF
Description: Inhibition of recombinant DNA topoisomerase 1 (unknown origin) assessed as inhibition of topoisomerase 1-mediated DNA cleavage at 1 to 100 uM after 20 mins by SDS-PAGE analysis relative to control.

In experiment [2] the target is T1, DNA topoisomerase 1 (Homo sapiens). Description: Inhibition of recombinant DNA topoisomerase 1 (unknown origin) assessed as inhibition of topoisomerase 1-mediated DNA cleavage at 1 uM after 20 mins by SDS-PAGE analysis.

Consider `c1ccc(-c2cnn3c2nc(NCCCc2ncc[nH]2)c2ccccc23)cc1`, for which the “Top1 cleavage inhibition (active/inactive)” value in experiment [1] was “Active”.

As to `CCN(CC)CCOc1nc2c(-c3ccc(OC)cc3)cnn2c2ccccc12`, in experiment [1], the “Top1 cleavage inhibition (active/inactive)” value is “Active”. The same measure, in the same setting: the same measure for `CN(C)CCOc1nc2c(-c3ccc(Cl)cc3)cnn2c2ccccc12`: “Active”; for `CN(C)CCCNc1nc2c(-c3ccc(C(F)(F)F)cc3)cnn2c2ccccc12`: “Active”; for `CN(C)CCNc1nc2c(-c3ccc(Cl)cc3)cnn2c2ccccc12`: “Active”.

`CCN(CC)CCOc1nc2c(-c3ccc(Cl)cc3)cnn2c2ccccc12`: the “Top1 cleavage inhibition (active/inactive)” value in experiment [1] is “Active”. Moreover, the “Top1 DNA cleavage inhibition (active/not active)” value in experiment [2] was “inactive”.

As to `CN(C)CCCOc1nc2c(-c3ccc(C(F)(F)F)cc3)cnn2c2ccccc12`, in experiment [1], the “Top1 cleavage inhibition (active/inactive)” value was “inactive”. The “Top1 DNA cleavage inhibition (active/not active)” value in experiment [2] is “inactive”.

Turning to `CCN(CC)CCNc1nc2c(-c3ccc(OC)cc3)cnn2c2ccccc12`, the “Top1 cleavage inhibition (active/inactive)” value in experiment [1] is “Active”. Still for that read-out and setting: the same measure for `CCN(CC)CCNc1nc2c(-c3ccc(C(F)(F)F)cc3)cnn2c2ccccc12`: “Active”; for `COc1ccc(-c2cnn3c2nc(OCCN(C)C)c2ccccc23)cc1`: “Active”. Same read-out and setting: then `CCN(CC)CCOc1nc2cc(-c3ccccc3)nn2c2ccccc12`, with “Active”.

On to `CN(C)CCCn1c(=O)c2ccccc2n2nc(-c3ccccc3)cc12`, for which the “Top1 cleavage inhibition (active/inactive)” value in experiment [1] was “inactive”. Besides, the “Top1 DNA cleavage inhibition (active/not active)” value in experiment [2] was “inactive”. As for `CN(C)CCCOc1nc2cc(-c3ccccc3)nn2c2ccccc12`, the “Top1 cleavage inhibition (active/inactive)” value in experiment [1] was “inactive”. Regarding `Clc1ccc(-c2cnn3c2nc(NCCCc2ncc[nH]2)c2ccccc23)cc1`, the “Top1 cleavage inhibition (active/inactive)” value in experiment [1] is “inactive”. In addition, the “Top1 DNA cleavage inhibition (active/not active)” value in experiment [2] is “inactive”.

For the molecule `CN(C)CCNc1nc2c(-c3ccc(C(F)(F)F)cc3)cnn2c2ccccc12`, in experiment [1], the “Top1 cleavage inhibition (active/inactive)” value was “Active”. Consider `CN(C)CCCOc1nc2c(-c3ccc(Cl)cc3)cnn2c2ccccc12`, for which, in experiment [1], the “Top1 cleavage inhibition (active/inactive)” value is “Active”. Same read-out and setting: then `CCN(CC)CCNc1nc2c(-c3ccc(Cl)cc3)cnn2c2ccccc12`, with “Active”; and `O=c1c2ccccc2n2nc(-c3ccccc3)cc2n1CCCc1ncc[nH]1`, with “inactive”. On the same count and under the same terms, the same measure for `FC(F)(F)c1ccc(-c2cnn3c2nc(NCCCc2ncc[nH]2)c2ccccc23)cc1`: “inactive”; for `CN(C)CCCNc1nc2c(-c3ccc(Cl)cc3)cnn2c2ccccc12`: “Active”; for `CN(C)CCOc1nc2cc(-c3ccccc3)nn2c2ccccc12`: “Active”. Still for that read-out and setting: the same measure for `CN(C)CCOc1nc2c(-c3ccc(C(F)(F)F)cc3)cnn2c2ccccc12`: “Active”; for `COc1ccc(-c2cnn3c2nc(NCCN(C)C)c2ccccc23)cc1`: “Active”. As to `COc1cc2c3c(n(CCCNCCO)c(=O)c2cc1OC)-c1cc2c(cc1C3=O)OCO2`, in experiment [2], the “Top1 DNA cleavage inhibition (active/not active)” value was “Active”. With `CN(C)CCCOc1nc2c(-c3ccccc3)cnn2c2ccccc12`, the “Top1 cleavage inhibition (active/inactive)” value in experiment [1] is “Active”. Still for that read-out and setting: then `CCN(CC)CCNc1nc2cc(-c3ccccc3)nn2c2ccccc12`, with “inactive”; and `CCN(CC)CCOc1nc2c(-c3ccc(C(F)(F)F)cc3)cnn2c2ccccc12`, with “inactive”; and `CN(C)CCn1c(=O)c2ccccc2n2nc(-c3ccccc3)cc12`, with “Active”.

For the molecule `COc1ccc(-c2cnn3c2nc(NCCCc2ncc[nH]2)c2ccccc23)cc1`, the “Top1 cleavage inhibition (active/inactive)” value in experiment [1] was “inactive”.

`COc1ccc(-c2cnn3c2nc(OCCCN(C)C)c2ccccc23)cc1`: in experiment [1], the “Top1 cleavage inhibition (active/inactive)” value is “Active”.

`CCN(CC)CCOc1nc2c(-c3ccccc3)cnn2c2ccccc12`: the “Top1 cleavage inhibition (active/inactive)” value in experiment [1] is “Active”. Still for that read-out and setting: the same measure for `c1ccc(-c2cc3nc(NCCCc4ncc[nH]4)c4ccccc4n3n2)cc1`: “inactive”. Same read-out and setting: the same measure for `CN(C)CCOc1nc2c(-c3ccccc3)cnn2c2ccccc12`: “Active”; for `COc1ccc(-c2cnn3c2nc(NCCCN(C)C)c2ccccc23)cc1`: “Active”. Same read-out and setting: the same measure for `CCN(CC)CCNc1nc2c(-c3ccccc3)cnn2c2ccccc12`: “Active”.
